In patent US20040242565A1, “Medicinal composition for prevention of or treatment for cerebrovascular disorder and cardiopathy” (priority 2001, published 2004):
Read-outs that look alike come from different tables or passages of the source.

Experiments:
Type in all cases: in vivo
[1] = system: Dog Delayed Cerebral Vasospasm Model; experiment: Effect on dog delayed cerebral vasospasm model (basilar artery diameter by angiography); conditions: seventh day, separate administration
Description: An adult mongrel dog was anesthetized with pentobarbital and 5 ml of autologous blood was injected into cisterna magna (on the first day). On the third day, 5 ml of autologous blood was injected into cisterna magna under thiamyral anesthesia. Before the injection of autologous blood on the first day and on the seventh day, angiographin was injected into vertebral artery, followed by photographing blood vessel of basilar artery. […] As a control, physiological saline was administered into vein over 30 minutes continuously. After the administration of each drug, the blood vessel was photographed to measure the diameter of basilar artery.

[2] = system: Vasopressin Induced Rat Angina Pectoris Model; conditions: half an hour before vasopressin 0.5 U/kg i.v., separate administration
Description: Half an hour later, vasopressin (0.5 U/kg) was intravenously administered. The ST segment depression was used as an index showing the degree of a myocardial ischemia. […] ST segment in an electrocardiogram was measured for comparison with a ST segment before the vasopressin administration. […] In addition, occurrence of a myocardial ischemia was observed.

[3] = system: Rat Cerebral Infarction Model; experiment: Inhibitory effect of cerebral infarction in rat cerebral infarction model (brain microthromboembolism); conditions: 10 mg/kg intraperitoneally once a day until the fourth day, separate administration
Description: A rat brain microthromboembolism model described in Stroke, 31, 2245-2255 (2000) was used as a cerebral infarction model. […] After the model was prepared, each drug was administered once a day until the fourth day. On the fifth day, the brain was extracted and the size of a cerebral infarction was histopathologically measured.

With `COCCOC(=O)C1=C(C)NC(C)=C(C(=O)OC(C)C)C1c1cccc([N+](=O)[O-])c1` (centres unmarked) [Nimodipine, nimodipine] as the compound, how does the “Basilar artery diameter (diameter before blood injection: 100%)” value ([1]; 0.1 mg/kg into vein over 30 minutes) read?
Its value is 55.7%.

What about the “Basilar artery diameter (diameter before blood injection: 100%)” value ([1]; 1 mg/kg into vein over 30 minutes) of the same compound?
Its value is 58.0%.

With `CC(C)NCC(O)COc1cccc2ccccc12` (centres unmarked) [propranolol] as the compound, how does the “improvement of ST segment depression (index of myocardial ischemia)” value ([2]; propranolol 100 mg/kg orally) read?
Its value is “not improved”.

Which “inhibition of cerebral infarction (size measured histopathologically, fifth day)” value [3] does the source give for `O=C([O-])/C=C/c1ccc(Cn2ccnc2)cc1.[Na+]` [sodium ozagrel] here?
Its value is “not inhibited”.

Which “improvement of ST segment depression (index of myocardial ischemia)” value ([2]; isosorbide nitrate 30 mg/kg orally) does the source give for isosorbide nitrate here?
Its value is “not improved”.
